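1) Cells in 96-well plates. 2) Compound, 48 h, 5 concentrations. 3) Linear interpolation between surrounding doses. 4) Unreached endpoint = highest concentration. GI50: concentration for 50% inhibition of growth. TGI marks complete inhibition of growth.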
Key:
Assay in all cases: NCI anticancer screen, dose series, 48 h
[1] = system: NCI-H226 lung
[2] = system: HS 578T breast
[3] = system: K-562 leukemia
[4] = system: HOP-92 NSCLC
[5] = system: KM12 colon
[6] = system: A498 renal
[7] = system: OVCAR-4 ovarian
[8] = system: HL-60(TB) leukemia
[9] = system: SK-MEL-5 melanoma
[10] = system: CAKI-1 renal
[11] = system: SK-MEL-2 melanoma
[12] = system: SF-539 CNS
[13] = system: LOX IMVI melanoma
[14] = system: OVCAR-5 ovarian
[15] = system: NCI-H23 lung
[16] = system: RXF 393 renal
[17] = system: UO-31 renal
[18] = system: SF-295 CNS
[19] = system: MDA-MB-435
[20] = system: NCI-H522 lung
[21] = system: SF-268 CNS
[22] = system: MDA-MB-231 breast
[23] = system: OVCAR-8 ovarian
[24] = system: COLO 205 colon
[25] = system: BT-549 breast
[26] = system: SK-MEL-28 melanoma
[27] = system: U251 CNS
[28] = system: ACHN renal
[29] = system: NCI-H460 lung
[30] = system: SW-620 colon
[31] = system: HT29 colon
[32] = system: 786-0 renal
[33] = system: MALME-3M melanoma
[34] = system: NCI/ADR-RES ovarian
[35] = system: TK-10 renal
[36] = system: HCT-116 colon
[37] = system: HOP-62 NSCLC
[38] = system: MCF7 breast
[39] = system: M14 melanoma
[40] = system: SN12C renal
[41] = system: HCT-15 colon
[42] = system: IGROV1 ovarian
[43] = system: SNB-75 CNS
[44] = system: EKVX NSCLC
[45] = system: UACC-62 melanoma
[46] = system: PC-3 prostate
[47] = system: A549 NSCLC
[48] = system: MOLT-4 leukemia
[49] = system: T-47D breast
[50] = system: CCRF-CEM leukemia
[51] = system: OVCAR-3 ovarian
[52] = system: RPMI-8226 leukemia
[53] = system: SNB-19 CNS
[54] = system: SK-OV-3 ovarian
[55] = system: HCC-2998 colon
[56] = system: DU-145 prostate
[57] = system: UACC-257 melanoma

In the case of `COc1cc(-c2csc(NC(=O)Nc3ccc(Cl)c(C(F)(F)F)c3)n2)cc(OC)c1OC`, the GI50 [1] is reported as 1.74 µM, the TGI [1] is reported as 6.03 µM and the GI50 [2] is reported as 1.67 µM. For the same compound, the TGI [2] was 5.47 µM, the GI50 [3] was 1.16 µM and the TGI [3] was 11.3 µM. It also gave a GI50 [4] of 0.357 µM, a TGI [4] of 2.22 µM and a GI50 [5] of 0.764 µM. It also gave a TGI [5] of 4.93 µM, a GI50 [6] of 0.26 µM and a TGI [6] of 1.71 µM. It also gave a GI50 [7] of 1.15 µM, a TGI [7] of 4.53 µM and a GI50 [8] of 1.76 µM. It also gave a TGI [8] of 6.05 µM, a GI50 [9] of 1.18 µM and a TGI [9] of 2.44 µM. For the same compound, the GI50 [10] was 1.37 µM, the TGI [10] was 3.62 µM and the GI50 [11] was 1.8 µM. It also gave a TGI [11] of 4.57 µM, a GI50 [12] of 1.89 µM and a TGI [12] of 5.47 µM. The GI50 [13] was 1.53 µM, the TGI [13] was 3.48 µM and the GI50 [14] was 2.35 µM. It also gave a TGI [14] of 10.5 µM, a GI50 [15] of 1.47 µM and a TGI [15] of 6.06 µM. The GI50 [16] was 1.6 µM, the TGI [16] was 3.9 µM and the GI50 [17] was 1.65 µM. For the same compound, the TGI [17] was 5.64 µM, the GI50 [18] was 1.13 µM and the TGI [18] was 2.64 µM. The GI50 [19] was 1.81 µM, the TGI [19] was 4.84 µM and the GI50 [20] was 1.1 µM. It also gave a TGI [20] of 3.57 µM, a GI50 [21] of 2.25 µM and a TGI [21] of 10.4 µM. It also gave a GI50 [22] of 1.47 µM, a TGI [22] of 3.93 µM and a GI50 [23] of 1.38 µM. It also gave a TGI [23] of 3.66 µM, a GI50 [24] of 1.65 µM and a TGI [24] of 3.46 µM. For the same compound, the GI50 [25] was 1.94 µM, the TGI [25] was 5.55 µM and the GI50 [26] was 2.6 µM. For the same compound, the TGI [26] was 11.3 µM, the GI50 [27] was 1.41 µM and the TGI [27] was 3.19 µM. It also gave a GI50 [28] of 1.27 µM, a TGI [28] of 3.57 µM and a GI50 [29] of 1.37 µM. For the same compound, the TGI [29] was 3.5 µM, the GI50 [30] was 2.06 µM and the TGI [30] was 10.5 µM. It also gave a GI50 [31] of 1.8 µM, a TGI [31] of 4.68 µM and a GI50 [32] of 2.08 µM. For the same compound, the TGI [32] was 6.47 µM, the GI50 [33] was 1.97 µM and the TGI [33] was 5.57 µM. For the same compound, the GI50 [34] was 1.5 µM, the TGI [34] was 5.53 µM and the GI50 [35] was 1.78 µM. The TGI [35] was 5.03 µM, the GI50 [36] was 1.42 µM and the TGI [36] was 7.93 µM. For the same compound, the GI50 [37] was 1.7 µM, the TGI [37] was 4.57 µM and the GI50 [38] was 1.87 µM. The TGI [38] was 10.1 µM, the GI50 [39] was 2.26 µM and the TGI [39] was 7.3 µM. The GI50 [40] was 1.76 µM, the TGI [40] was 6.6 µM and the GI50 [41] was 1.54 µM. For the same compound, the TGI [41] was 10.7 µM, the GI50 [42] was 1.83 µM and the TGI [42] was 9.3 µM. For the same compound, the GI50 [43] was 1.21 µM, the TGI [43] was 3.17 µM and the GI50 [44] was 1.19 µM. It also gave a TGI [44] of 7.03 µM, a GI50 [45] of 1.24 µM and a TGI [45] of 3.75 µM. It also gave a GI50 [46] of 0.494 µM, a TGI [46] of 3.36 µM and a GI50 [47] of 1.38 µM. It also gave a TGI [47] of 4.75 µM, a GI50 [48] of 1.13 µM and a TGI [48] of 4.35 µM. The GI50 [49] was 0.885 µM, the TGI [49] was 4.07 µM and the GI50 [50] was 2.24 µM. For the same compound, the TGI [50] was 12.8 µM, the GI50 [51] was 1.16 µM and the TGI [51] was 3.12 µM. The GI50 [52] was 0.573 µM, the TGI [52] was 4.1 µM and the GI50 [53] was 1.93 µM. The TGI [53] was 6.97 µM, the GI50 [54] was 1.98 µM and the TGI [54] was 4.55 µM. It also gave a GI50 [55] of 2.95 µM, a TGI [55] of 10.6 µM and a GI50 [56] of 1.79 µM. The TGI [56] was 6.67 µM.

With `Cc1cc(C2CC(O)C(CO)O2)c(Cl)cc1Cl` (stereo not given) the GI50 [1] was 56.4 µM, the TGI [1] was greater than 100 µM and the GI50 [2] was 84.8 µM. It also gave a TGI [2] greater than 100 µM, a GI50 [3] greater than 100 µM and a TGI [3] greater than 100 µM. For the same compound, the GI50 [4] was 89.4 µM, the TGI [4] was greater than 100 µM and the GI50 [5] was greater than 100 µM. It also gave a TGI [5] greater than 100 µM, a GI50 [6] of 58.2 µM and a TGI [6] greater than 100 µM. The GI50 [8] was greater than 100 µM, the TGI [8] was greater than 100 µM and the GI50 [9] was greater than 100 µM. The TGI [9] was greater than 100 µM, the GI50 [10] was greater than 100 µM and the TGI [10] was greater than 100 µM. It also gave a GI50 [11] greater than 100 µM, a TGI [11] greater than 100 µM and a GI50 [12] greater than 100 µM. It also gave a TGI [12] greater than 100 µM, a GI50 [13] of 84.3 µM and a TGI [13] greater than 100 µM. It also gave a GI50 [14] greater than 100 µM, a TGI [14] greater than 100 µM and a GI50 [15] greater than 100 µM. For the same compound, the TGI [15] was greater than 100 µM, the GI50 [16] was greater than 100 µM and the TGI [16] was greater than 100 µM. For the same compound, the GI50 [17] was greater than 100 µM, the TGI [17] was greater than 100 µM and the GI50 [18] was greater than 100 µM. It also gave a TGI [18] greater than 100 µM, a GI50 [19] greater than 100 µM and a TGI [19] greater than 100 µM. It also gave a GI50 [20] greater than 100 µM, a TGI [20] greater than 100 µM and a GI50 [21] greater than 100 µM. The TGI [21] was greater than 100 µM, the GI50 [22] was 69.5 µM and the TGI [22] was greater than 100 µM. The GI50 [23] was greater than 100 µM, the TGI [23] was greater than 100 µM and the GI50 [24] was greater than 100 µM. For the same compound, the TGI [24] was greater than 100 µM, the GI50 [25] was greater than 100 µM and the TGI [25] was greater than 100 µM. The GI50 [26] was greater than 100 µM, the TGI [26] was greater than 100 µM and the GI50 [27] was greater than 100 µM. The TGI [27] was greater than 100 µM, the GI50 [28] was greater than 100 µM and the TGI [28] was greater than 100 µM. For the same compound, the GI50 [29] was greater than 100 µM, the TGI [29] was greater than 100 µM and the GI50 [30] was greater than 100 µM. For the same compound, the TGI [30] was greater than 100 µM, the GI50 [31] was greater than 100 µM and the TGI [31] was greater than 100 µM. For the same compound, the GI50 [32] was greater than 100 µM, the TGI [32] was greater than 100 µM and the GI50 [33] was greater than 100 µM. The TGI [33] was greater than 100 µM, the GI50 [34] was greater than 100 µM and the TGI [34] was greater than 100 µM. It also gave a GI50 [35] greater than 100 µM, a TGI [35] greater than 100 µM and a GI50 [36] greater than 100 µM. For the same compound, the TGI [36] was greater than 100 µM, the GI50 [37] was greater than 100 µM and the TGI [37] was greater than 100 µM. The GI50 [38] was greater than 100 µM, the TGI [38] was greater than 100 µM and the GI50 [39] was greater than 100 µM. The TGI [39] was greater than 100 µM, the GI50 [40] was greater than 100 µM and the TGI [40] was greater than 100 µM. It also gave a GI50 [41] greater than 100 µM, a TGI [41] greater than 100 µM and a GI50 [42] of 46.3 µM. It also gave a TGI [42] greater than 100 µM, a GI50 [44] of 98.4 µM and a TGI [44] greater than 100 µM. For the same compound, the GI50 [45] was 39.9 µM, the TGI [45] was greater than 100 µM and the GI50 [46] was 77.8 µM. For the same compound, the TGI [46] was greater than 100 µM, the GI50 [47] was greater than 100 µM and the TGI [47] was greater than 100 µM. The GI50 [49] was greater than 100 µM, the TGI [49] was greater than 100 µM and the GI50 [50] was greater than 100 µM. The TGI [50] was greater than 100 µM, the GI50 [51] was greater than 100 µM and the TGI [51] was greater than 100 µM. The GI50 [57] was greater than 100 µM, the TGI [57] was greater than 100 µM and the GI50 [52] was 70.4 µM. The TGI [52] was greater than 100 µM, the GI50 [53] was greater than 100 µM and the TGI [53] was greater than 100 µM. For the same compound, the GI50 [54] was greater than 100 µM, the TGI [54] was greater than 100 µM and the GI50 [55] was greater than 100 µM. It also gave a TGI [55] greater than 100 µM, a GI50 [56] greater than 100 µM and a TGI [56] greater than 100 µM.

From PubChem BioAssay (NCI)
